# Source: patent US8987272B2, “Compounds and method for treatment of HIV” (priority 2010, dated 2015)
# Several values for one entry are separate records, joined by “and”; a condition that tells them apart may be missing. Identical values can stand only once. Entries after “also recorded” stand apart in the source; their conditions may differ. Like-named read-outs stand apart in the source and are kept apart here.
# Assays:
# HIV-1 integrase [1] = target: T1, HIV-1 integrase (Human immunodeficiency virus type 1 group M subtype B (isolate HXB2) (HIV-1), UniProt P04585); assay: biochemical; type: biochemical
# Method: The effect of each compound on HIV integrase activity was assayed using the “HIV-1 Integrase Assay Kit” version 2.0, catalogue number EZ-1700 obtained from XpressBio Life Science Products. Immediately prior to the start of the assay, both compounds were dissolved in dimethyl sulfoxide (DMSO) and used immediately in the HIV integration assay. The assay was performed according to the instructions listed by the manufacturer (XpressBio Life Science Products, Maryland, USA). In brief, the required streptavidin-coated strip wells were coated with DS oligo and placed overnight at 4° C. The plates were then incubated with integrase and followed by the addition of test articles at the desired concentration. The plates were developed using the supplied HRP antibody and TMB peroxidase substrate as per the manufacturer's instructions. The reactions were stopped with TMB stop solution and immediately read (<10 min) using a VICTOR XXX. The absorbance of each well was read at 450 nm for 0.5 sec. All measurements were performed in triplicate.
# The background absorbance was subtracted from the raw data of each sample to yield “background corrected” absorbance values. […] The CV=% SD for the 100% integrase alone control.
# To determine the IC50 of each test compound, non-linear regression analysis was used.
# Because the top and the bottom plateaus can be defined by solid control data (eg. sodium azide), the data was fitted to a normalized model in order to calculate the IC50. […] Since 6 compound concentrations were tested in triplicate, the data was analyzed using the standard slope model, in contrast with the variable slope model.
# HIV-1 integrase [2] = target: T1, HIV-1 integrase; assay: biochemical; type: biochemical; remark: listed apart in the source
# Method: The capacity of the compound to inhibit HIV integrase in a cell-free system was assessed. An HIV Integrase Assay System (XpressBio Life Science Products; Thurmont, Md., www.expressbio.com) was used. In brief, double-stranded HIV-1 donor substrate (the U5 long terminal repeat) was immobilized in 96-well plates. Recombinant HIV-1 integrase protein was added, along with an oligonucleotide target substrate. The integrase cleaves the donor substrate and integrates it into the target substrate, which is now in solution phase—the integrated product (the amount is indicative of integrase activity) was detected using an antibody specific for the recombinant target/donor sequence. Inhibitors added along with the donor substrate reduced the amount of product. […] The capacity of a compound known to inhibit HIV integrase activity (NaN3) was assessed as a positive control. All assessed inhibitions were compared to controls treated with vehicle only (compounds dissolved in 100% DMSO, then diluted in buffer to a maximum DMSO concentration of 0.1% DMSO).
# However, it should be kept in mind that indirect HIV integrase inhibition (which might possibly occur in living cells) will not be detected.
# COTI-HIV1Doxo was assayed for HIV-1 integrase activity, as described above. All measurements were made in quadruplicate (n=4) to allow statistical analysis of significance.
# [3] = all concentrations tested (lowest 1 nM)
compound,measurement,setting,value
"Cn1cnc(-c2nnc(Cc3ccc(F)cc3)o2)c(O)/c1=N\O [COTI-HIV1DOxime, 6-[5-(4-fluoro-benzyl)-[1,3,4]oxadiazol-2-yl]-5-hydroxy-3-methyl-3H-pyrimidin-4-one oxime]",IC50,HIV-1 integrase [1],58.7 µM
same,inhibition of HIV-1 integrase,HIV-1 integrase [1]; [3],significantly inhibited HIV-1 integrase; also recorded: significantly inhibit HIV-1 integrase activity
"Cn1cnc(-c2nnc(Cc3ccc(F)cc3)o2)c(O)c1=O [COTI-HIV1Doxo, 6-[5-(4-Fluoro-benzyl)-[1,3,4]oxadiazol-2-yl]-5-hydroxy-3-methyl-3H pyrimidin-4-one]",IC50,HIV-1 integrase [2],~10 µM
same,effect on HIV-1 integrase activity,"HIV-1 integrase [2]; 1 nM, listed as COTI-HIV-1 ketone derivative",enhanced HIV-1 integrase activity; also recorded: slightly but significantly enhanced HIV-1 integrase activity
same,effect on HIV-1 integrase activity,HIV-1 integrase [2]; 100 nM,inhibited HIV-1 integrase; also recorded: significantly reduce HIV-1 integrase activity
same,effect on HIV-1 integrase activity,HIV-1 integrase [2]; all higher tested concentrations (up to 100 μM),significantly decreased HIV-1 integrase activity
same,complete inhibition of integrase activity,HIV-1 integrase [2]; up to 100 μM,not observed
Cn1nc(-c2nnc(Cc3ccc(F)cc3)o2)/c(=N\O)c2ncccc21 [COTI-HIV1Oxime],IC50,HIV-1 integrase [1],23.9 µM
same,percent of the total control activity,HIV-1 integrase [1]; at 100 μM,34.82%
same,reduction in HIV-1 integrase activity,HIV-1 integrase [1]; at 100 μM,At least 50%
same,inhibition of HIV-1 integrase,"HIV-1 integrase [1]; at 100 μM, listed as COTI-HIV28233",significantly inhibited HIV-1 integrase; also recorded: significantly reduce activity
same,inhibition of HIV-1 integrase activity,HIV-1 integrase [1]; at low concentrations,modestly inhibit HIV-1 integrase activity
Cn1nc(C(=O)NCc2ccc(F)cc2)/c(=N\O)c2ncccc21 [COTI-HIV28236],IC50,HIV-1 integrase [1],14 µM
same,inhibition of HIV-1 integrase,HIV-1 integrase [1]; [3],significantly inhibited HIV-1 integrase; also recorded: significantly inhibit HIV-1 integrase activity
same,reduction in HIV-1 integrase activity,HIV-1 integrase [1]; at 100 μM,At least 50%
"[N-]=[N+]=[N-].[Na+] [sodium azide, reference compound]",effect of positive control on HIV-1 integrase activity,HIV-1 integrase [2]; 1.0% or 3.3%,effectively decreased HIV-1 integrase activity
same,effect of positive control on HIV-1 integrase activity,HIV-1 integrase [1]; positive control,effectively decrease HIV-1 integrase activity
same,calculated IC50 of sodium azide controls,HIV-1 integrase [1]; two controls run in parallel,0.12% and 0.14%
same,percent control activity,HIV-1 integrase [1]; with 10% sodium azide,0%
